For 23 compounds, IC50 results are on record in US11203591B2, “Substituted 6-azabenzimidazole compounds” (Gilead Sciences, Inc., priority 2018, dated 2021).

Chain of human HPK1 (MAP4K1) (Q92918 17-274): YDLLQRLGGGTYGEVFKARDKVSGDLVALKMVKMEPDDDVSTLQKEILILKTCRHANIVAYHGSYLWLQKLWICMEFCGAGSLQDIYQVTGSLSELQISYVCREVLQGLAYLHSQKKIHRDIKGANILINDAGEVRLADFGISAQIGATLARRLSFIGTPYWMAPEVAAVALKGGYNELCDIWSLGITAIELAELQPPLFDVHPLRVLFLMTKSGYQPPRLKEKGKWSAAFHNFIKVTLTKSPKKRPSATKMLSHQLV

The target of the experiment is human HPK1 (MAP4K1) (Homo sapiens (Human), UniProt Q92918). Put plainly: HPK1 IC50 Assay (TR-FRET peptide phosphorylation). As to conditions: recombinant HPK1 kinase domain 0.15 nM, 10 μM ATP, 1 μM STK S1 peptide; geometric mean of multiple experiments. The experiment is classed as biochemical. The protocol:
The enzymatic activity of human HPK1 (MAP4K1) was monitored in a biochemical assay in the presence or absence of compounds and using a synthetic peptide substrate. An increase in phosphorylation of the peptide by HPK1 was indicative of its kinase activity.
Recombinant HPK1 kinase domain produced via baculovirus infection of insect cells was obtained from Proteros (Proteros Biostructures #PR-0322) and was pre-activated in the presence of 2 mM ATP (Sigma-Aldrich, cat #GE27-2056-01) and 2 mM magnesium chloride for 16 hours at 4° C. The protein reaction mixture was then loaded to a desalting column (Thermo Fisher Scientific, Cat #89889) to remove excess ATP. HPK1 was eluted with buffer containing 20 mM Tris (2-Amino-2-(hydroxymethyl)propane-1,3-diol) pH 8.0, 150 mM NaCl, 2 mM dithiothreitol and 5% glycerol, and was frozen at −80° C. for later use. HPK1 dual phosphorylation was confirmed by mass spectrometry.
Ten nanoliters of test compounds dissolved in DMSO at various concentrations were dispensed into a 384-well ProxiPlate (PerkinElmer #6008289). Five microliters of a solution of recombinant HPK1 diluted in HPK1 kinase assay buffer (50 mM BES [N,N-Bis(2-hydroxyethyl)-2-aminoethanesulfonic acid], pH 7.0; 10 mM magnesium chloride; 0.01% Triton X-100; 1 mM dithiothreitol; 0.01% bovine serum albumin; 0.1 mM sodium orthovanadate) was added to the compound-containing plate and was incubated for 15 minutes at 25° C. Five microliters of a mixture of ATP (Sigma-Aldrich #A6559) and peptide substrate STK S1 (Cisbio #61ST1BLC) diluted in HPK1 kinase assay buffer was then added to start the reaction. Final concentrations were 0.15 nM for HPK1, 10 μM for ATP, and 1 μM for the STK S1 peptide substrate. The reaction mixture was incubated at 25° C. for 3 hours and was stopped with the addition of 10 μl of an EDTA (Ethylenediaminetetraacetic acid)-containing detection buffer (Cisbio #62SDBRDF) supplemented with Europium cryptate-labeled anti-phospho-serine/threonine antibodies (Cisbio #62ST1PEJ) and XL665-labeled streptavidin (Cisbio #610SAXLG). The mixture was incubated for 16 hours at room temperature and peptide phosphorylation was measured by time-resolved fluorescence energy transfer (665 nm/620 nm) on an Envision plate reader (PerkinElmer).
Data in Table 1 were normalized based on positive (staurosporine) and negative (DMSO) controls. Least squares curve fittings were performed using a four-parameter variable slope nonlinear regression model. IC50 is defined as the concentration of compound required to inhibit 50% of maximum phosphorylation. IC50 values from multiple experiments were averaged by geometric mean and the standard deviation was calculated.
(In general: Time-resolved FRET reads energy transfer from a long-lived donor to a nearby acceptor.)
For orientation: IC50 means the concentration at which inhibition is half-maximal. In the case of `CNC(=O)c1cc(Nc2nc(-c3ccc4c(c3)N([C@H]3C[C@@H](N5CCCCC5)C3)C(=O)C43CCN(C(=O)C4(C)CC4)CC3)cc3ncn(C(C)C)c23)ccc1C` [Example 152, 5-((3-isopropyl-6-(1′-(1-methylcyclopropane-1-carbonyl)-2-oxo-1-((1s,3s)-3-(piperidin-1-yl)cyclobutyl)spiro[indoline-3,4′-piperidin]-6-yl)-3H-imidazo[4,5-c]pyridin-4-yl)amino)-N,2-dimethylbenzamide], the IC50 was found to be 0.2 nM.
Regarding `Cc1c(C(=O)NC2(C(F)F)CC2)cc(Nc2nc(-c3cnc4c(c3)N(C3CC(C)(N5CCC6C[C@H]5CO6)C3)C(=O)C4(C)C)cc3ncn(C(C)C)c23)c(F)c1F` (some centres unmarked) [Example 191, 5-((6-(1-((1s,3s)-3-(6-oxa-2-azabicyclo[3.2.1]octan-2-yl)-3-methylcyclobutyl)-3,3-dimethyl-2-oxo-2,3-dihydro-1H-pyrrolo[3,2-b]pyridin-6-yl)-3-isopropyl-3H-imidazo[4,5-c]pyridin-4-yl)amino)-N-(1-(difluoromethyl)cyclopropyl)-3,4-difluoro-2-methylbenzamide], the IC50 stood at 0.09 nM.
For the compound `CNC(=O)c1cc(Nc2nc(-c3ccc4c(c3)N([C@H]3C[C@@H](N5CCCCC5)C3)C(=O)C43CCN(C(=O)C4(C)CC4)CC3)cc3ncn(C4CC4)c23)ccc1C` [Example 150], the IC50 amounted to 0.1 nM.
In the case of `CNC(=O)c1cc(Nc2nc(-c3ccc4c(c3)N([C@H]3C[C@@H](N5CC[C@H](F)C5)C3)C(=O)C4(C)C)cc3ncn(C(C)C)c23)ccc1C` [Example 5] it was 0.2 nM; in that of `CNC(=O)c1cc(Nc2nc(-c3ccc4c(c3)N([C@H]3C[C@@H](N5CCCCC5)C3)C(=O)C43CN(C(C)=O)C3)cc3ncn(C(C)C)c23)c(F)cc1C` [Example 177], 0.4 nM.
Take `Cc1c(C(=O)NC(C)C)cc(Nc2nc(-c3cnc4c(c3)N([C@H]3C[C@@](C)(N5CCCCC5)C3)C(=O)C4(C)C)cc3ncn(C(C)C)c23)c(F)c1F` [Example 220, 5-((6-(3,3-Dimethyl-1-((1s,3s)-3-methyl-3-(piperidin-1-yl)cyclobutyl)-2-oxo-2,3-dihydro-1H-pyrrolo[3,2-b]pyridin-6-yl)-3-isopropyl-3H-imidazo[4,5-c]pyridin-4-yl)amino)-3,4-difluoro-N-isopropyl-2-methylbenzamide]: the IC50 is 0.09 nM.
The result for `Cc1c(C(=O)NC2(C(F)F)CC2)cc(Nc2nc(-c3ccc4c(c3)N([C@H]3C[C@@](C)(N5CCCCC5)C3)CC4(C)C)cc3ncn(C(C)C)c23)c(F)c1F` [Example 237, N-(1-(Difluoromethyl)cyclopropyl)-5-((6-(3,3-dimethyl-1-((1s,3s)-3-methyl-3-(piperidin-1-yl)cyclobutyl)indolin-6-yl)-3-isopropyl-3H-imidazo[4,5-c]pyridin-4-yl)amino)-3,4-difluoro-2-methylbenzamide] reads 0.3 nM.
In the case of `Cc1c(C(=O)NC2(C(F)F)CC2)cc(Nc2nc(-c3cnc4c(c3)N([C@H]3C[C@@H](N5C[C@H]6CC[C@@H]5C6)C3)C(=O)C4(C)C)cc3ncn(C(C)C)c23)c(F)c1F` [Example 64] it was 0.1 nM; in that of `CC(C)n1cnc2cc(-c3cnc4c(c3)N([C@H]3C[C@@](C)(N5CCCCC5)C3)C(=O)C4(C)C)nc(Nc3cc(C(=O)NC4(C(F)(F)F)CC4)c(Cl)c(F)c3F)c21` [Example 204, 2-Chloro-5-((6-(3,3-dimethyl-1-((1s,3s)-3-methyl-3-(piperidin-1-yl)cyclobutyl)-2-oxo-2,3-dihydro-1H-pyrrolo[3,2-b]pyridin-6-yl)-3-isopropyl-3H-imidazo[4,5-c]pyridin-4-yl)amino)-3,4-difluoro-N-(1-(trifluoromethyl)cyclopropyl)benzamide], 0.2 nM.
With `CC[C@H](C)n1cnc2cc(-c3ccc4c(c3)N([C@H]3C[C@@H](N5CCC[C@@H](F)C5)C3)C(=O)C4(C)C)nc(Nc3cc(C(=O)NC)c(C)cc3F)c21` [Example 113], the IC50 turned out to be 0.1 nM.
As for `CNC(=O)c1cc(Nc2nc(-c3ccc4c(c3)N([C@H]3C[C@@H](N5CCCCC5)C3)C(=O)C43CCN(S(=O)(=O)C4CC4)CC3)cc3ncn(C4CC4)c23)ccc1C` [Example 167], the IC50 was determined as 0.1 nM.
`CC(C)n1cnc2cc(-c3ccc4c(c3)N([C@H]3C[C@@H](N5CCCCC5)C3)C(=O)C4(C)C)nc(Nc3cc(C(=O)NC4(C(F)F)CC4)c(Cl)c(F)c3F)c21` [Example 244, 2-chloro-N-(1-(difluoromethyl)cyclopropyl)-5-((6-(3,3-dimethyl-2-oxo-1-((1s,3s)-3-(piperidin-1-yl)cyclobutyl)indolin-6-yl)-3-isopropyl-3H-imidazo[4,5-c]pyridin-4-yl)amino)-3,4-difluorobenzamide]: the IC50 turned out to be 0.05 nM.
In the case of `CNC(=O)c1cc(Nc2nc(-c3ccc4c(c3)N([C@H]3C[C@@H](N5CC(C)(C)C5)C3)C(=O)C4(C)C)cc3ncn(C(C)C)c23)ccc1C` [Example 122] it was 0.1 nM; in that of `CC(C)n1cnc2cc(-c3cnc4c(c3)N([C@H]3C[C@@](C)(N5CCC6CC6C5)C3)C(=O)C4(C)C)nc(Nc3cc(C(=O)NC4(C(F)F)CC4)c(Cl)c(F)c3F)c21` (mixture of isomers) [Example 260, 5-((6-(1-((1s,3s)-3-(3-azabicyclo[4.1.0]heptan-3-yl)-3-methylcyclobutyl)-3,3-dimethyl-2-oxo-2,3-dihydro-1H-pyrrolo[3,2-b]pyridin-6-yl)-3-isopropyl-3H-imidazo[4,5-c]pyridin-4-yl)amino)-2-chloro-N-(1-(difluoromethyl)cyclopropyl)-3,4-difluorobenzamide], 0.08 nM.
Turning to `CNC(=O)c1cc(Nc2nc(-c3ccc4c(c3)N([C@H]3C[C@@H](N5CCCCC5)C3)C(=O)C43CCN(C(C)=O)CC3)cc3ncn(C4CC4)c23)c(F)cc1Cl` [Example 93], the IC50 came to 0.2 nM.
In the case of `CNC(=O)c1cc(Nc2nc(-c3ccc4c(c3)N([C@H]3C[C@@H](N5CC6C(C5)C6(F)F)C3)C(=O)C43CCN(C4COC4)CC3)cc3ncn(C(C)C)c23)c(F)cc1C` (some centres unmarked) [Example 70], the IC50 was determined as 0.7 nM.
For the compound `CNC(=O)c1cc(Nc2nc(-c3ccc4c(c3)N([C@H]3C[C@@H](NCC(C)(C)F)C3)C(=O)C4(C)C)cc3ncn(C(C)C)c23)ccc1C` [Example 82], the IC50 turned out to be 0.08 nM.
Turning to `CNC(=O)c1cc(Nc2nc(-c3ccc4c(c3)N([C@H]3C[C@@H](N5CCCCC5)C3)C(=O)C43CCN(C(=O)C4CCC4)CC3)cc3ncn(C4CC4)c23)ccc1C` [Example 155], the IC50 stood at 0.06 nM.
In the case of `CC(C)n1cnc2cc(-c3ccc4c(c3)N([C@H]3C[C@@](C)(N5CCCCC5)C3)C(=O)C4(C)C)nc(Nc3cc(C(=O)NC4(C(F)F)CC4)c(Cl)c(F)c3F)c21` [Example 241, 2-Chloro-N-(1-(difluoromethyl)cyclopropyl)-5-((6-(3,3-dimethyl-1-((1s,3s)-3-methyl-3-(piperidin-1-yl)cyclobutyl)-2-oxoindolin-6-yl)-3-isopropyl-3H-imidazo[4,5-c]pyridin-4-yl)amino)-3,4-difluorobenzamide], the IC50 is 0.1 nM.
For the compound `CNC(=O)c1cc(Nc2nc(-c3ccc4c(c3)N([C@H]3C[C@@H](N5CCC[C@@H](F)C5)C3)C(=O)C43CCN(C4COC4)CC3)cc3ncn(C(C)C)c23)c(F)cc1C` [Example 170, 4-fluoro-5-((6-(1-((1S,3s)-3-((R)-3-fluoropiperidin-1-yl)cyclobutyl)-1′-(oxetan-3-yl)-2-oxospiro[indoline-3,4′-piperidin]-6-yl)-3-isopropyl-3H-imidazo[4,5-c]pyridin-4-yl)amino)-N,2-dimethylbenzamide], the IC50 amounted to 0.8 nM.
With `Cc1ccc(Nc2nc(-c3ccc4c(c3)N([C@H]3C[C@@H](N5CCCCC5)C3)C(=O)C43CCOCC3)cc3ncn(C4CC4)c23)cc1C(N)=O` [Example 126], the IC50 was 0.07 nM.
`Cc1c(C(=O)NC2(C(F)F)CC2)cc(Nc2nc(-c3ccc4c(c3)N([C@H]3C[C@@](C)(N5CCCCC5)C3)C(=O)C4(C)C)cc3ncn(C(C)C)c23)c(F)c1F` [Example 236, N-(1-(Difluoromethyl)cyclopropyl)-5-((6-(3,3-dimethyl-1-((1s,3s)-3-methyl-3-(piperidin-1-yl)cyclobutyl)-2-oxoindolin-6-yl)-3-isopropyl-3H-imidazo[4,5-c]pyridin-4-yl)amino)-3,4-difluoro-2-methylbenzamide]: the half-maximal inhibitory concentration (IC50) amounted to 0.07 nM.
On to `CNC(=O)c1cc(Nc2nc(-c3ccc4c(c3)N([C@H]3C[C@@H](N5CCCCC5)C3)C(=O)C43CCN(C(=O)C4(O)CC4)CC3)cc3ncn(C4CC4)c23)ccc1C` [Example 84], for which the IC50 came to 0.2 nM.
